The record followed here is patent US20230271958A1, “SALT AND CRYSTAL FORM OF DIHYDROPYRIDO[2,3-d]PYRIMIDINE DERIVATE” (NANJING CHIA TAI TIANQING PHARMACEUTICAL CO., LTD., priority 2020, published 2023).

A short description of this series: Solid stability of crystal form A (chemical purity by HPLC). Format: physicochemical. To be noted: for Purity (%) after placement (day 20): exposed to air for 20 d; for Purity (%) before placement (day 0): exposed to air. The method, then:
Hot and humid conditions: temperature: 40° C., relative humidity: 75%, crystal form A was exposed to air for 20 d • b. High temperature conditions: temperature: 60° C., crystal form A was exposed to air for 20 d
The chemical purity of crystal form A was measured by HPLC.
Chromatographic column: ACE Excel 5 Super C18 (4.6×150 mm, 5 μm)
Detection wavelength: 230 nm, column temperature: 30° C., flow rate: 1.0 mL/min
Mobile phase: diammonium hydrogen phosphate (1.32 g) was weighed and dissolved in water (1000 mL), the solution was adjusted with phosphoric acid until the pH of the solution was 7.2, filtered, and used as A phase; and acetonitrile was used as B phase.

Where [1] appears, read: condition a: 40° C., relative humidity 75%.

With `CC(C)NC[C@@H](C(=O)N1CCN(c2ncnc3c2[C@H](C)CC(=O)N3)[C@H]2C[C@H]21)c1ccc(Cl)cc1.O=C(O)/C=C/C(=O)O` [crystal form A], under setting [1], the “Purity (%) after placement (day 20)” value was determined as 99.89% and the “Purity (%) before placement (day 0)” value was 99.84%. Moreover, where the note is “condition b: 60° C.”, the “Purity (%) after placement (day 20)” value stood at 99.88% and the “Purity (%) before placement (day 0)” value amounted to 99.84%.
